Where “and” joins values, the source holds several entries; their conditions need not be identical. Equal entries are not always repeated. Where two headings read alike, the source gives them in different places.

Test [1] has as its system T. aureum-derived Δ5 desaturase. It is filed as cell-based, Thraustochytrium aureum. Particulars: S. cerevisiae expressing TauΔ5des, (product × 100)/(substrate + product). The procedure: In order to verify that the acquired gene was Δ5 desaturase, overexpression experiment was conducted using a budding yeast S. cerevisiae as a host. First, the acquired gene was incorporated at the EcoRI/XhoI site of a yeast vector pYES2/CT (Invitrogen) to construct an expression vectorpYΔ5des. The constructed expression vector pY5Δdes was then introduced into S. cerevisiae, and GC analysis was performed after extracting and methylating the transfectant fatty acids obtained by using the lithium acetate technique. A gas chromatograph GC-2014 (Shimadzu Corporation) was used for the GC analysis, which was performed under the following conditions. Column: HR-SS-10 (30 m×0.25 mm; Shinwa Chemical Industries Ltd.), column temperature: 150° C.→(5° C./min)→220° C. (10 min), carrier gas: He (1.3 mL/min). GC-17A and GCMS-QP-5000 (Shimadzu Corporation) were used for GC-MS analysis, which was performed using a DB-1 capillary column (0.25 mmi.d.×30 m, film thickness 0.25 μm; Agilent) under the following conditions: column temperature 160° C.→(4° C./min)→260° C., injector port temperature 250° C. For peaks that caused troubles in the analyses, the fatty acids were analyzed after picolinyl esterification, using the same apparatuses and columns under the temperature condition 240° C.→(2.5° C./min)→260° C. (15 min)→(2.5° C./min)→280° C.

Test [2] deals with A. limacinum transfectants. Nature of the test: G418 resistance on PDA agar plate, ub-Neo^r transfectants. Type of test: cell-based, Aurantiochytrium limacinum mh0186. Here is the method: (§1) The transfectants were cultured in 0.5 mg/ml G418-containing GY liquid medium. The wild-type strain was cultured in GY liquid medium containing no G418. The culture fluids of these strains were spotted in 10-μl portions on PDA agar plate media containing G418 (0, 0.2, 0.5, 1, 2, 4 mg/ml), and growth on the agar plate media was observed after culturing the cells at 25° C. for 2 days. It was found as a result that the proliferation was inhibited at 0.2 mg/ml G418 in the wild-type strain, whereas the transfectants proliferated even in the presence of 4 mg/ml G418 (FIG. 13A). Further, there was no change in G418 resistance, and proliferation was observed even at a G418 concentration of 32 mg/ml in a similar experiment conducted with PDA agar plate media containing G418 (0, 2, 4, 8, 16, 32 mg/ml) after subculturing the transfectants five times in a GY liquid medium containing no G418 (FIG. 13B).

Test [3] deals with A. limacinum wild-type strain. Nature of the test: G418 resistance on PDA agar plate, wild-type strain. It is filed as cell-based, Aurantiochytrium limacinum mh0186. The conditions noted are these: 25° C., 2 days. Here is the method:
as §1

Test [4] relates to Thraustochytrium aureum-derived Δ5 desaturase. As to the kind of experiment: Fatty acid composition of Δ5 desaturase-introduced Aurantiochytrium sp. mh0186 (mhΔ5neo^r), GC analysis. Type of test: cell-based. The conditions noted are these: host mh0186; 0.1 mM ETA (to EPA) or DGLA (to AA) in medium. The procedure: The transformed clone obtained in Example 6, (3), v. was cultured for 3 days, and mhneo^r and mhΔ5neo^r were analyzed by GC analysis after extracting the fatty acid methyl ester. Separately, 0.1 mM ETA or DGLA, exogenous fatty acids used as a substrate by Δ5 desaturase, was added to medium for incorporation into Labyrinthula, and GC analysis was performed after extracting the fatty acids as in the overexpression experiment using yeast. A gas chromatograph GC-2014 (Shimadzu Corporation) was used for the GC analysis, which was performed under the following conditions. Column: HR-SS-10 (30 m×0.25 mm; Shinwa Chemical Industries Ltd.), column temperature: 150° C.→(5° C./min)→220° C. (10 min), carrier gas: He (1.3 mL/min).
ETA or DGLA used as a substrate by Δ5 desaturase was also added to medium at 0.1 mM for incorporation into Labyrinthula. As a result, the precursor substances converted into EPA and AA in Labyrinthula, and the content increased, as observed in the Δ5 desaturase expression experiment using yeast (Tables 9 and 10). […] This experiment was repeated in three or more confirmatory experiments to confirm reproducibility. All experiments produced the same results.

Test [5] relates to Saccharomyces cerevisiae (pYES2/CT, mock). Nature of the test: Mock (pYES2/CT) introduced yeast, GC analysis of fatty acids. It is filed as cell-based. The conditions noted are these: 100 × product/(product + substrate). The procedure:
By using a plasmid containing the full length of the P. pyriformis-derived Δ12 desaturase gene as a template, a PCR was performed with primers Pry-F (SEQ ID NO: 60 in the Sequence Listing) and Pyr-R (SEQ ID NO: 61 in the Sequence Listing), using a PrimeSTAR GC polymerase kit (Takara Bio). The PCR added a HindIII restriction enzyme site and an XbaI restriction enzyme site at the both ends. The amplified fragments were incorporated in a pGEM-T-Easy vector (Promega), and sequence analysis was performed. […] As a result, a Δ12 desaturase gene expression vector pYpΔ12Des was constructed. […] For peaks that caused troubles in the analyses, the fatty acids were analyzed after picolinyl esterification, using the same apparatuses and columns under the temperature condition 240° C.→(2.5° C./min)→260° C. […]
In order to verify that the Δ12 desaturase was encoded by the acquired gene, an expression vector was constructed, and an expression experiment was conducted using a budding yeast S. cerevisiae (Invitrogen) as a host. […] The conversion efficiency from oleic acid to linoleic acid was 23.5±1.23%, as calculated according to the following equation. […]

As for “Eicosatrienoic acid [C20:3n-3 Eicosatrienoic acid]”, the “Percentage of substrate converted (%)” value in test [1] came out at 0.0%.

On to “Eicosadienoic acid [C20:2n-6 Eicosadienoic acid]”, for which, in test [1], the “Percentage of substrate converted (%)” value is given as 0.0%.

As for `CN[C@@H]1[C@@H](O)[C@@H](O[C@@H]2[C@@H](O)[C@H](O[C@H]3O[C@H]([C@@H](C)O)[C@@H](O)[C@H](O)[C@H]3N)[C@@H](N)C[C@H]2N)OC[C@]1(C)O` [G418], the “G418 concentration at which proliferation was still observed” value in test [2] (PDA agar plate, 25° C., 2 days, highest tested 4 mg/ml) came to 4 mg/mL; in test [2] (after subculturing five times without G418, highest tested 32 mg/ml) it was 32 mg/mL. In test [3], the “G418 concentration at which proliferation was inhibited” value amounted to 0.2 mg/mL.

For the compound `CCCCC/C=C\C/C=C\C/C=C\CCCCCCC(=O)O` [DGLA, dihomo-γ-linolenic acid], the “Conversion efficiency of the precursor substance in Labyrinthula” value in test [4] is 63% and 62.9%. Also, the “Percentage of substrate converted (%)” value in test [1] came out at 27%; in test [1] (listed as C20:3n-6 Dihomo-g-linolenic acid (DGLA)), 27.0%.

On to eicosatetraenoic acid [ETA], for which, in test [4], the “Conversion efficiency of the precursor substance in Labyrinthula” value is 75% and 75.2%. Moreover, the “Percentage of substrate converted (%)” value in test [1] is 32%; in test [1] (listed as C20:4n-3 Eicosatetraenoic acid (ETA)), 32.0%.

Take `CCCCC/C=C\C/C=C\CCCCCCCC(=O)O` [18:2^Δ9,12, linoleic acid]: the “Percentage of substrate converted (%)” value in test [1] turned out to be 0.0%.

Consider `CC/C=C\C/C=C\C/C=C\CCCCCCCC(=O)O` [18:3^Δ9,12,15, α-linolenic acid], for which the “Percentage of substrate converted (%)” value in test [1] came to 0.0%.

`CCCCCC/C=C\CCCCCCCC(=O)O` [16:1^Δ9]: the “Conversion efficiency (%)” value in test [5] worked out at 0%.

(Values after patent US10815505B2, “Microbial oil extracted from stramenopiles” (priority 2009, dated 2020).)
